Results: patent US20240116985A1, “STAPLED PEPTIDES AND METHODS THEREOF” (priority 2020, published 2024)
pIC50: −log10 of the molar value.

Target: T1, full-length beta-Catenin (Uniprot ID P35222) (Homo sapiens, UniProt P35222)
T1 construct: 10 nM full-length beta-Catenin (Uniprot ID P35222)
T1 sequence (P35222 1-781): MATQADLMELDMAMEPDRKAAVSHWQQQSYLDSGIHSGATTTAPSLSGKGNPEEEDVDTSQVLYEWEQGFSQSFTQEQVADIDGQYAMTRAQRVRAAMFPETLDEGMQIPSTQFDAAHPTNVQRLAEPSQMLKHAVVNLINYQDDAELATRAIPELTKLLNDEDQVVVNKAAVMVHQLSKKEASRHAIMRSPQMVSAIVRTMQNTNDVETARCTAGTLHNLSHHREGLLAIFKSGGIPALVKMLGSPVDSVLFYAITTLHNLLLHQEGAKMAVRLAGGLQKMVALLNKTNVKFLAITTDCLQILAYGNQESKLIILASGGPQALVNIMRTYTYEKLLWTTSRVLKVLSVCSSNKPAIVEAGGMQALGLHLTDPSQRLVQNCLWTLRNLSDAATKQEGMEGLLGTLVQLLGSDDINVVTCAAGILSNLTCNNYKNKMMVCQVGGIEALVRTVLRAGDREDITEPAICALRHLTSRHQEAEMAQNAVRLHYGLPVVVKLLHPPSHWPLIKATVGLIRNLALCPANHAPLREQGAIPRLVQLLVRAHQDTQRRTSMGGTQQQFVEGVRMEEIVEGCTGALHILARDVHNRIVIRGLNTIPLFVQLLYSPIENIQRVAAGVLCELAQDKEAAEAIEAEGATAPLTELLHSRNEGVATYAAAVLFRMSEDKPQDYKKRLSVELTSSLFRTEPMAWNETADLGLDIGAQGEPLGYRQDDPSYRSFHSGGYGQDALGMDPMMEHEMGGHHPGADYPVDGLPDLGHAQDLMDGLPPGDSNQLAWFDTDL
Experiment: Fluorescence polarization IC50 (beta-catenin / 5FAM-TCF4 10-53 competition)
Assay type: binding
Details: fluorescence polarization; read-out: beta-Catenin FP IC50

Compound | pIC50
CC(=O)N1CCC[C@]12CC=CCCCC1(CCCC=CCCCOC(=O)N3CC[C@@](C(=O)N[C@@H](Cc4ccccc4)C(=O)N[C@@H](Cc4csc5ccccc45)C(=O)N[C@@H](CCC(N)=O)C(N)=O)(C3)NC(=O)[C@H](CO)NC(=O)[C@H](Cc3ccccc3)NC(=O)[C@H](C)NC(=O)[C@H](CCCCNC(C)C)NC(=O)[C@H]([C@@H](C)O)NC(=O)[C@H](CC(=O)O)NC1=O)NC(=O)[C@H](CC(C)(C)C)NC(=O)[C@H](CC(N)=O)NC2=O (stereo partly drawn) [I-1601, Ac-PL3-Asn-Npg-B5-Asp-Thr-iPrLys-Ala-Phe-Ser-PyrS2-Phe-BztA-Gln-NH2] | 5.70
CC(=O)N1CCC[C@]12CCCCCCC1(CCCCCCCCOC(=O)N3CC[C@@](C(=O)N[C@@H](Cc4ccccc4C(F)(F)F)C(=O)N[C@@H](Cc4csc5ccccc45)C(=O)N[C@@H](CCC(N)=O)C(N)=O)(C3)NC(=O)[C@H](CC(C)C)NC(=O)[C@H](Cc3ccccc3)NC(=O)[C@H](C)NC(=O)[C@H](C)NC(=O)[C@H](Cc3cccc(C(=O)O)c3)NC(=O)[C@H](CC(=O)O)NC1=O)NC(=O)[C@H](CC(C)(C)C)NC(=O)[C@H](CC(=O)O)NC2=O (stereo partly drawn) [I-1604, Ac-PL3-Asp-Npg-B5-Asp-3COOHF-Ala-Ala-Phe-Leu-PyrS2-2F3MeF-BztA-Gln-NH2] | 6.91
CC(=O)N1CCC[C@]12CCCCCCC1(CCCCCCCCOC(=O)N3CC[C@@](C(=O)N[C@@H](Cc4ccsc4)C(=O)N[C@@H](Cc4csc5ccccc45)C(=O)N[C@@H](CCC(N)=O)C(N)=O)(C3)NC(=O)[C@H](CC(C)C)NC(=O)[C@H](Cc3ccccc3)NC(=O)[C@H](C)NC(=O)[C@H](C)NC(=O)[C@H](CN(CC(=O)O)CC(F)(F)F)NC(=O)[C@H](CC(=O)O)NC1=O)NC(=O)[C@H](CC(C)(C)C)NC(=O)[C@H](CC(=O)O)NC2=O (stereo partly drawn) [I-1605, Ac-PL3-Asp-Npg-B5-Asp-TfeGA-Ala-Ala-Phe-Leu-PyrS2-3Thi-BztA-Gln-NH2] | 6.67
CC(=O)N1CCC[C@]12CCCCCCC1(CCCCCCCCOC(=O)N3CC[C@@](C(=O)N[C@@H](Cc4ccccc4Cl)C(=O)N[C@@H](Cc4csc5ccccc45)C(=O)N[C@@H](CCC(N)=O)C(N)=O)(C3)NC(=O)[C@H]([C@@H](C)O)NC(=O)[C@H](Cc3ccccc3)NC(=O)[C@H](C)NC(=O)[C@H](C)NC(=O)[C@H](CN(CC(=O)O)CC(F)(F)F)NC(=O)[C@H](CC(=O)O)NC1=O)NC(=O)[C@H](CC(C)(C)C)NC(=O)[C@H](CC(=O)O)NC2=O (stereo partly drawn) [I-1606, Ac-PL3-Asp-Npg-B5-Asp-TfeGA-Ala-Ala-Phe-Thr-PyrS2-2C1F-BztA-Gln-NH2] | 6.97
CC(=O)N1CCC[C@]12CC=CCCCC1(CCCC=CCCCCCC[C@@](C)(C(=O)N[C@@H](Cc3ccsc3)C(=O)N[C@@H](Cc3csc4ccccc34)C(=O)N[C@@H](CCC(N)=O)C(N)=O)NC(=O)[C@H](CC(N)=O)NC(=O)[C@H](Cc3ccccc3)NC(=O)[C@H](C)NC(=O)[C@H](C)NC(=O)[C@H]([C@@H](C)O)NC(=O)[C@H](CC(N)=O)NC1=O)NC(=O)[C@H](CC(C)(C)C)NC(=O)[C@H](CC(=O)O)NC2=O (stereo partly drawn) [I-1617, Ac-PL3-Asp-Npg-B5-Asn-Thr-Ala-Ala-Phe-Asn-S8-3Thi-BztA-Gln-NH2] | 6.12
CCCC[C@@H]1NC(=O)[C@H](Cc2ccccc2)NC(=O)[C@H](C)NC(=O)[C@H](C)NC(=O)[C@H]([C@@H](C)O)NC(=O)[C@H](CC(N)=O)NC(=O)C2(CCCC=CCCCOC(=O)N3CC[C@@](C(=O)N[C@@H](Cc4ccsc4)C(=O)N[C@@H](Cc4csc5ccccc45)C(=O)N[C@@H](CCC(N)=O)C(N)=O)(C3)NC1=O)CCCC=CC[C@]1(CCCN1C(C)=O)C(=O)N[C@@H](CC(=O)O)C(=O)N[C@@H](CC(C)(C)C)C(=O)N2 (stereo partly drawn) [I-1619, Ac-PL3-Asp-Npg-B5-Asn-Thr-Ala-Ala-Phe-nLeu-PyrS2-3Thi-BztA-Gln-NH2] | 5.89
CC(=O)N1CCC[C@]12CC=CCCCC1(CCCC=CCCCOC(=O)N3CC[C@@](C(=O)N[C@@H](Cc4ccsc4)C(=O)N[C@@H](Cc4csc5ccccc45)C(=O)N[C@@H](CCC(N)=O)C(N)=O)(C3)NC(=O)[C@H](CCC(C)C)NC(=O)[C@H](Cc3ccccc3)NC(=O)[C@H](C)NC(=O)[C@H](C)NC(=O)[C@H]([C@@H](C)O)NC(=O)[C@H](CC(N)=O)NC1=O)NC(=O)[C@H](CC(C)(C)C)NC(=O)[C@H](CC(=O)O)NC2=O (stereo partly drawn) [I-1620, Ac-PL3-Asp-Npg-B5-Asn-Thr-Ala-Ala-Phe-hLeu-PyrS2-3Thi-BztA-Gln-NH2] | 5.69
CC(=O)N1CCC[C@]12CC=CCCCC1(CCCC=CCCCOC(=O)N3CC[C@@](C(=O)N[C@@H](Cc4ccsc4)C(=O)N[C@@H](Cc4csc5ccccc45)C(=O)N[C@@H](CCC(N)=O)C(N)=O)(C3)NC(=O)[C@H]([C@@H](C)O)NC(=O)[C@H](Cc3ccccc3)NC(=O)[C@H](C)NC(=O)[C@H](C)NC(=O)[C@H]([C@@H](C)O)NC(=O)[C@H](CC(N)=O)NC1=O)NC(=O)[C@H](CC(C)(C)C)NC(=O)[C@H](CC(=O)O)NC2=O (stereo partly drawn) [I-1621, Ac-PL3-Asp-Npg-B5-Asn-Thr-Ala-Ala-Phe-Thr-PyrS2-3Thi-BztA-Gln-NH2] | 6.58
CCC(C)N(CC(=O)O)C[C@@H]1NC(=O)[C@H](CC(=O)O)NC(=O)C2(CCCC=CCCCOC(=O)N3CC[C@@](C(=O)N[C@@H](Cc4ccccc4Cl)C(=O)N[C@@H](Cc4csc5ccccc45)C(=O)N[C@@H](CCC(N)=O)C(N)=O)(C3)NC(=O)[C@H](CC(N)=O)NC(=O)[C@H](Cc3ccccc3)NC(=O)[C@H](C)NC(=O)[C@H](C)NC1=O)CCCC=CC[C@]1(CCCN1C(C)=O)C(=O)N[C@@H](CC(=O)O)C(=O)N[C@@H](CC(C)(C)C)C(=O)N2 (stereo partly drawn) [I-1623, Ac-PL3-Asp-Npg-B5-Asp-[sBu]GA-Ala-Ala-Phe-Asn-PyrS2-2C1F-BztA-Gln-NH2] | 7.52
CC(=O)N1CCC[C@]12CC=CCCCC1(CCCC=CCCCCCC[C@@](C)(C(=O)N[C@@H](Cc3ccsc3)C(=O)N[C@@H](Cc3csc4ccccc34)C(=O)N[C@@H](CCC(N)=O)C(N)=O)NC(=O)[C@H](CC(N)=O)NC(=O)[C@H](Cc3ccccc3)NC(=O)[C@H](C)NC(=O)[C@H](C)NC(=O)[C@H](CN(CC(=O)O)Cc3c(F)c(F)c(F)c(F)c3F)NC(=O)[C@H](CC(=O)O)NC1=O)NC(=O)[C@H](CC(C)(C)C)NC(=O)[C@H](CC(=O)O)NC2=O (stereo partly drawn) [I-1624, Ac-PL3-Asp-Npg-B5-Asp-[Pfbn]GA-Ala-Ala-Phe-Asn-S8-3Thi-BztA-Gln-NH2] | 7.32

Second part, the compound after the results:

pIC50 | Compound
6.14 | CCC(C)N(CC(=O)O)C[C@@H]1NC(=O)[C@H](CC(=O)O)NC(=O)C2(CCCC=CCCCCCC[C@@](C)(C(=O)N[C@@H](Cc3ccsc3)C(=O)N[C@@H](Cc3csc4ccccc34)C(=O)N[C@@H](CCC(N)=O)C(N)=O)NC(=O)[C@H](CC(N)=O)NC(=O)[C@H](Cc3ccccc3)NC(=O)[C@H](C)NC(=O)[C@H](C)NC1=O)CCCC=CC[C@]1(CCCN1C(C)=O)C(=O)N[C@@H](CC(=O)O)C(=O)N[C@@H](CC(C)(C)C)C(=O)N2 (stereo partly drawn) [I-1626, Ac-PL3-Asp-Npg-B5-Asp-[sBu]GA-Ala-Ala-Phe-Asn-S8-3Thi-BztA-Gln-NH2]
8.10 | CC(=O)N1CCC[C@]12CC=CCCCC1(CCCC=CCCCOC(=O)N3CC[C@@](C(=O)N[C@@H](Cc4ccsc4)C(=O)N[C@@H](Cc4csc5ccccc45)C(=O)N[C@@H](CCC(N)=O)C(N)=O)(C3)NC(=O)[C@H](CC(N)=O)NC(=O)[C@H](Cc3ccccc3)NC(=O)[C@H](C)NC(=O)[C@H](C)NC(=O)[C@H](CN(CCC(F)(F)F)CC(=O)O)NC(=O)[C@H](CC(=O)O)NC1=O)NC(=O)[C@H](CC(C)(C)C)NC(=O)[C@H](CC(=O)O)NC2=O (stereo partly drawn) [I-1640, Ac-PL3-Asp-Npg-B5-Asp-[Tfp]GA-Ala-Ala-Phe-Asn-PyrS2-3Thi-BztA-Gln-NH2]
7.44 | CC(=O)N1CCC[C@]12CC=CCCCC1(CCCC=CCCCOC(=O)N3CC[C@@](C(=O)N[C@@H](Cc4ccsc4)C(=O)N[C@@H](Cc4csc5ccccc45)C(=O)N[C@@H](CCC(N)=O)C(=O)NC4CCCCC4)(C3)NC(=O)[C@H](CC(N)=O)NC(=O)[C@H](Cc3ccccc3)NC(=O)[C@H](C)NC(=O)[C@H](C)NC(=O)[C@H](CN(CC(=O)O)CC(F)(F)F)NC(=O)[C@H](CC(=O)O)NC1=O)NC(=O)[C@H](CC(C)(C)C)NC(=O)[C@H](CC(=O)O)NC2=O (stereo partly drawn) [I-1642, Ac-PL3-Asp-Npg-B5-Asp-TfeGA-Ala-Ala-Phe-Asn-PyrS2-3Thi-BztA-Gln-NHCyHe]
6.09 | CC(=O)N1CCC[C@]12CC=CCCCC1(CCCC=CCCCOC(=O)N3CC[C@@](C(=O)N[C@@H](Cc4ccccc4)C(=O)N[C@@H](Cc4csc5ccccc45)C(=O)N[C@@H](CCCCN)C(N)=O)(C3)NC(=O)[C@H](CC(C)C)NC(=O)[C@H](Cc3ccccc3)NC(=O)[C@H](C)NC(=O)[C@H](CCCCNC(C)C)NC(=O)[C@H](CCC(N)=O)NC(=O)[C@H](CC(=O)O)NC1=O)NC(=O)[C@H](CC(C)(C)C)NC(=O)[C@H](CC(N)=O)NC2=O (stereo partly drawn) [I-1643, Ac-PL3-Asn-Npg-B5-Asp-Gln-iPrLys-Ala-Phe-Leu-PyrS2-Phe-BztA-Lys-NH2]
